Columns and labels:
transglutaminase (TGase) = experiment: Measurement of TG (TGase inhibitory activity, monodansyl cadaverine / N,N-dimethylcasein fluorescence, FDSS 3000); assay type: biochemical
Procedure: For example, the method described in the Example can be performed.
The compound of the present invention (10 mM, 1 μL) was taken in a 96-well plate (Nunc, 96 Well Black Plate with Clear Bottom), an enzyme reaction solution (100 mM HEPES-NaOH, pH 7.5, 1 mM CaCl2, 20 μM monodansyl cadaverine, 0.05 mg/mL N,N-dimethylcasein, 5 μg/mL TGase) (0.1 ml) was added and the mixture was sufficiently mixed without making foams. The mixture was set on a fluorescence drug screening system FDSS 3000 (Hamamatsu Photonics K.K.), and changes in the fluorescence wavelength per unit time at 340 nm were measured, based on which the TGase inhibitory activity of the compound of the present invention was calculated. As a control, change in the fluorescence when 1 μL of DMSO (dimethyl sulfoxide) was added instead of the compound of the present invention was taken as 100, and TG50 was when the activity decreased to half due to the compound of the present invention.

[1] = test system: Truncated N-terminal huntington 150 Q-EGFP-Neuron 2a cells; experiment: Measurement of x-Fold (polyglutamine aggregation inhibitory activity); assay type: cell-based
Procedure: In the present invention, the polyglutamine aggregation inhibitory activity (x-Fold) can be measured, for example, by the method described in the Example.
The number of the aggregated cells, and the total number of cells were counted by Array Scan V T1 (manufactured by Cellomics, Pittuburg, USA), and the ratio of the aggregated cells to the total number of cells was determined (x-Fold). […]

[2] = TGase activity with compound (10 mM, 1 μL in 0.1 ml enzyme reaction solution), DMSO control taken as 100
[3] = TGase inhibitory activity value, Table 1
[4] = polyglutamine aggregation inhibitory activity, Table 1
[5] = ratio of aggregated cells to total number of cells, compound 20 μM, 20 hr, almost 1 without compound, smaller = stronger inhibition

TGase activity remaining (% of DMSO control = 100) (transglutaminase (TGase); [2]) | TGase activity remaining (% of DMSO control = 100) (transglutaminase (TGase); [3]) | TGase activity remaining (% of DMSO control = 100) (transglutaminase (TGase); TGase inhibitory activity value, Table 1, listed as 6023) | TGase activity remaining (% of DMSO control = 100) (transglutaminase (TGase); TGase inhibitory activity value, Table 1, listed as 5009) | TGase activity remaining (% of DMSO control = 100) (transglutaminase (TGase); TGase inhibitory activity value, Table 1, listed as 583) | Structure (SMILES) | x-Fold [1, 4] | x-Fold [1, 5] | x-Fold ([1]; polyglutamine aggregation inhibitory activity, Table 1, listed as 5009) | x-Fold ([1]; polyglutamine aggregation inhibitory activity, Table 1, listed as 583)
111 | 111 |  |  |  | CCCCB(O)c1ccccc1 [Example 108, normal-butyl phenyl borinic acid] | 1.00 | 1.00 |  | 
121 | 121 |  |  |  | CC(C)(C)B(OCCN)c1ccccc1 [Example 111, aminoethyl tertiary-butyl phenylborinate] | 1.02 | 1.02 |  | 
123 | 123 |  |  |  | CCCCB(OCCN)c1ccccc1 [Example 112, aminoethyl normal-butyl phenylborinate] | 0.99 | 0.99 |  | 
112 | 112 |  |  |  | OB(CCCCB(O)c1ccccc1)c1ccccc1 [Example 113, 1,4-bis(hydroxyphenylboryl)butane] | 0.99 | 0.99 |  | 
101 |  |  |  |  | OB(c1ccc(Cl)cc1)c1ccc(Cl)cc1 [Example 115, bis(4-chlorophenyl)borinic acid] |  | 1.07 |  | 
108 |  |  |  |  | Cc1ccc(B(OCCN2CCN(CCOB(c3ccc(C)c(Cl)c3)c3ccc(C)c(Cl)c3)CC2)c2ccc(C)c(Cl)c2)cc1Cl [Example 116, bis(di(3-chloro-4-methylphenyl)boryloxyethyl)piperazine] |  | 1.02 |  | 
88 | 88 |  |  |  | NCCOB(c1ccccc1)c1cccc(B(OCCN)c2ccccc2)c1 [Example 120, 1,3-bis(phenyl-2-aminoethoxyboryl)benzene] | 1.08 | 1.08 |  | 
121 |  |  |  | 121 | OB(c1ccccc1)c1ccccc1B(O)c1ccccc1 [Example 121, 1,2-bis(phenylhydroxyboryl)benzene] |  | 0.94 |  | 0.94
81 |  |  |  |  | COc1ccc(C(OB(c2ccccc2)c2ccc(COCc3ccc(B(OC(c4ccc(OC)cc4)c4ccccn4)c4ccccc4)cc3)cc2)c2ccccn2)cc1 (stereo not drawn) [Example 126, bis(phenyl 2-pyridyl-4-methoxyphenylmethoxyborylbenzyl)ether] |  | 1.04 |  | 
109 | 109 |  |  |  | COc1ccc(C(OB(c2ccc(C)c(Cl)c2)c2ccc(C)c(Cl)c2)c2ccccn2)cc1 (stereo not drawn) [Example 127, bis(3-chloro-4-methylphenyl) 2-pyridyl-4-methoxyphenylmethoxyborane] | 0.70 | 0.70 |  | 

Second part, the molecule before the results:

Structure (SMILES) | TGase activity remaining (% of DMSO control = 100) (transglutaminase (TGase); [2]) | TGase activity remaining (% of DMSO control = 100) (transglutaminase (TGase); [3]) | TGase activity remaining (% of DMSO control = 100) (transglutaminase (TGase); TGase inhibitory activity value, Table 1, listed as 6023) | TGase activity remaining (% of DMSO control = 100) (transglutaminase (TGase); TGase inhibitory activity value, Table 1, listed as 5009) | TGase activity remaining (% of DMSO control = 100) (transglutaminase (TGase); TGase inhibitory activity value, Table 1, listed as 583) | x-Fold [1, 4] | x-Fold [1, 5] | x-Fold ([1]; polyglutamine aggregation inhibitory activity, Table 1, listed as 5009) | x-Fold ([1]; polyglutamine aggregation inhibitory activity, Table 1, listed as 583)
NCC(OB(c1ccc(F)c(F)c1)c1ccc(F)c(F)c1)c1ccccc1 (stereo not drawn) [Example 88, 2-amino-1-phenylethyl bis(3,4-difluorophenyl)borinate] | 82 | 82 |  |  |  | 0.83 | 0.83 |  | 
NCCOB(c1cc(F)c(F)c(F)c1)c1cc(F)c(F)c(F)c1 [Example 89, aminoethyl bis(3,4,5-trifluorophenyl)borinate] | 80 | 80 |  |  |  | 0.94 | 0.94 |  | 
Fc1cc(B(OCc2ccccn2)c2cc(F)c(F)c(F)c2)cc(F)c1F [Example 90, 2-pyridylmethyl bis(3,4,5-trifluorophenyl)borinate] | 93 | 93 |  |  |  | 0.81 | 0.81 |  | 
NCCOB(c1cc(F)cc(F)c1)c1cc(F)cc(F)c1 [Example 91, aminoethyl bis(3,5-difluorophenyl)borinate] | 107 | 107 |  |  |  | 0.99 | 0.99 |  | 
CN(C)CCOB(c1cc(F)cc(F)c1)c1cc(F)cc(F)c1 [Example 92, dimethylaminoethyl bis(3,5-difluorophenyl)borinate] | 106 | 106 |  |  |  | 1.00 | 1.00 |  | 
NCCOB(c1ccc(Cl)c(F)c1)c1ccc(Cl)c(F)c1 [Example 93, aminoethyl bis(4-chloro-3-fluorophenyl)borinate] | 117 |  | 117 |  |  | 0.93 | 0.93 |  | 
CN(C)CCOB(c1ccc(Cl)c(F)c1)c1ccc(Cl)c(F)c1 [Example 94, dimethylaminoethyl bis(4-chloro-3-fluorophenyl)borinate] | 114 | 114 |  |  |  | 0.95 | 0.95 |  | 
NCCC(N)C(=O)OB(c1ccc(Cl)c(F)c1)c1ccc(Cl)c(F)c1 (stereo not drawn) [Example 95, di(3-fluoro-4-chlorophenyl)(2,4-diaminolactonate-O,N)borane] | 114 | 114 |  |  |  | 0.88 | 0.88 |  | 
NC(=O)CC[C@H](N)C(=O)OB(c1ccc(Cl)c(F)c1)c1ccc(Cl)c(F)c1 [Example 96, di(3-fluoro-4-chlorophenyl)(glutaminate-O,N)borane] | 124 | 124 |  |  |  | 0.86 | 0.86 |  | 
OB(c1cc(F)cc(Cl)c1)c1cc(F)cc(Cl)c1 [Example 97, bis(3-chloro-5-fluorophenyl)borinic acid] | 122 | 122 |  |  |  | 0.72 | 0.72 |  | 
OB(c1cc(Cl)ccc1F)c1cc(Cl)ccc1F [Example 98, bis(3-chloro-6-fluorophenyl)borinic acid] | 111 | 111 |  |  |  | 0.95 | 0.95 |  | 
NCCOB(c1cc(F)cc(Cl)c1)c1cc(F)cc(Cl)c1 [Example 99, aminoethyl bis(3-chloro-5-fluorophenyl)borinate] | 109 | 109 |  |  |  | 0.73 | 0.73 |  | 
NCCOB(c1cc(Cl)ccc1F)c1cc(Cl)ccc1F [Example 100, aminoethyl bis(3-chloro-6-fluorophenyl)borinate] | 119 | 119 |  |  |  | 0.97 | 0.97 |  | 
CNCCOB(c1cc(Cl)ccc1F)c1cc(Cl)ccc1F [Example 101, methylaminoethyl bis(3-chloro-6-fluorophenyl)borinate] | 122 | 122 |  |  |  | 1.02 | 1.02 |  | 
N#Cc1ccc(B(O)c2ccc(C#N)cc2)cc1 [Example 102, bis(4-cyanophenyl)borinic acid] | 72 |  |  | 72 |  |  | 1.10 | 1.10 | 
N#Cc1ccc(B(OCCN)c2ccc(C#N)cc2)cc1 [Example 103, aminoethyl bis(4-cyanophenyl)borinate] | 114 | 114 |  |  |  | 0.89 | 0.89 |  | 
N#Cc1ccc(B(OCc2ccccn2)c2ccc(C#N)cc2)cc1 [Example 104, 2-pyridylmethyl bis(4-cyanophenyl)borinate] | 94 | 94 |  |  |  | 1.16 | 1.16 |  | 
N#Cc1ccc(B(OCCNCc2ccccc2)c2ccc(C#N)cc2)cc1 [Example 105, benzylaminoethyl bis(4-cyanophenyl)borinate] | 92 | 92 |  |  |  | 1.05 | 1.05 |  | 
N#Cc1ccc(B(SCCN)c2ccc(C#N)cc2)cc1 [Example 106, 2-aminoethylthio bis(4-cyanophenyl)borane] | 23 | 23 |  |  |  | 0.92 | 0.92 |  | 
CCC(C)B(O)c1ccccc1 (stereo not drawn) [Example 107, secondary-butyl phenyl borinic acid] | 111 | 111 |  |  |  | 0.98 | 0.98 |  | 
